Results taken from ChEMBL document CHEMBL1909046, “DrugMatrix in vitro pharmacology data”.

Columns and labels:
[1] = DRUGMATRIX: Sigma2 radioligand binding (ligand: [3H] Ifenprodil); assay type: cell membranes, Rattus norvegicus, Wistar, Brain, Membrane; conditions: Not Active = under 50% inhibition at 10 µM
[2] = DRUGMATRIX: Phosphodiesterase PDE3 enzyme inhibition (substrate: [3H]cAMP + cAMP); assay type: tissue-based, Homo sapiens; conditions: platelet, Not Active = under 50% inhibition at 10 µM
Neutrophil elastase = biological target: T1, Neutrophil elastase (Homo sapiens, UniProt P08246); assay type: tissue-based;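 also: inhibition of neutrophil elastase enzyme activity, measured with a p-nitroanilide-linked peptide substrate; in other assays of this panel Not Active means under 50% inhibition at 10 µM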
T1 sequence (P08246 whole entry): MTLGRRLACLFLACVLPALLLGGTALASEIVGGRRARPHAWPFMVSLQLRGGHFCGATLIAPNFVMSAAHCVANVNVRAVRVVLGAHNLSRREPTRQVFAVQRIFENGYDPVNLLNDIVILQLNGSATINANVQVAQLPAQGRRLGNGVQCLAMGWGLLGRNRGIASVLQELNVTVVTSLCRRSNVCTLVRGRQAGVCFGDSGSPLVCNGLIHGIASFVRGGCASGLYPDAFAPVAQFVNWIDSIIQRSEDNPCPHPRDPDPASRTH

[3] = DRUGMATRIX: Glutamate, NMDA, Agonism radioligand binding (ligand: [3H] CGP-39653); assay type: cell membranes, Rattus norvegicus, Wistar, Cerebral cortex, Membrane; conditions: Not Active = under 50% inhibition at 10 µM
Cytochrome P450 2D6 = Cytochrome P450 2D6 (Homo sapiens, UniProt P10635); conditions: bti-tn-5b1-4; also: in other assays of this panel Not Active means under 50% inhibition at 10 µM
Sequence of Cytochrome P450 2D6 (P10635 whole entry): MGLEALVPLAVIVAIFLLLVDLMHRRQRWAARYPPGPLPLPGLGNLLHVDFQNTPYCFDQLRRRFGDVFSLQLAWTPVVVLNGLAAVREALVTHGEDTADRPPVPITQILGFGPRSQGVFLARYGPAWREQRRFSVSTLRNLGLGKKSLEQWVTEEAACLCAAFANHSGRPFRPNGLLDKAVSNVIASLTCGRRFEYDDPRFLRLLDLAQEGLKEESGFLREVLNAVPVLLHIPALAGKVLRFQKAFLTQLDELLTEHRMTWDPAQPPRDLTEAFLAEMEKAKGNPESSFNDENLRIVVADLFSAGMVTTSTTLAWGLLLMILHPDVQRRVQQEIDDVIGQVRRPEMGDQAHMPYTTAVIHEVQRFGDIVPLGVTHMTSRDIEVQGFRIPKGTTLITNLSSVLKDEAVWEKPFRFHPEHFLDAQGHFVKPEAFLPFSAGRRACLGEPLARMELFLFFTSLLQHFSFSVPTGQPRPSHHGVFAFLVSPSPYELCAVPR

Leukotriene C4 synthase = biological target: T2, Leukotriene C4 synthase (Cavia porcellus, UniProt A6XA80); assay type: tissue-based, Lung;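 also: enzyme inhibition assay of leukotriene C4 synthase, using LTA4 as the substrate; in other assays of this panel Not Active means under 50% inhibition at 10 µM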
T2 sequence (A6XA80 whole entry): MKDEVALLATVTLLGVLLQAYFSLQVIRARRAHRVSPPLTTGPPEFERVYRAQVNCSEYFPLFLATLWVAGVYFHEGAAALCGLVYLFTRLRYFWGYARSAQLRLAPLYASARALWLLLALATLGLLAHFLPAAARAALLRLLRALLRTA

[4] = biological target: Mitogen-activated protein kinase 14 (Homo sapiens, UniProt Q16539); design: species or system Escherichia coli;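 also: inhibition of p38alpha enzyme activity in a biochemical kinase assay, with myelin basic protein serving as substrate; in other assays of this panel Not Active means under 50% inhibition at 10 µM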
Sequence of Mitogen-activated protein kinase 14 (Q16539 whole entry): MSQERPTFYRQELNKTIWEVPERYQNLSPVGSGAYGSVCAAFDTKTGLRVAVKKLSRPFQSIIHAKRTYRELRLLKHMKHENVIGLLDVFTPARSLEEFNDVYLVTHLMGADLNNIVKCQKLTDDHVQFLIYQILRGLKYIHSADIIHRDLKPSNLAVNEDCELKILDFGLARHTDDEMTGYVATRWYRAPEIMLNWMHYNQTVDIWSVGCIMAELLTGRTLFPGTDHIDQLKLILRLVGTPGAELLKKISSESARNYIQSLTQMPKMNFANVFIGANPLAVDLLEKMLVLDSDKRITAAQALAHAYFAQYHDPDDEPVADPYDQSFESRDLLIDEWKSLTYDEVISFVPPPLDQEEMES

In the case of `O=C(O)CC(O)(CC(=O)O)C(=O)O` [CITRIC ACID], the IC50 [1] is reported as “Not Active”, the Ki [1] is reported as “Not Active” and the IC50 [2] is reported as “Not Active”. The Ki [2] was “Not Active”, the IC50 (Neutrophil elastase) was “Not Active” and the IC50 [3] was “Not Active”. For the same compound, the Ki [3] was “Not Active”, the IC50 (Cytochrome P450 2D6) was “Not Active” and the Ki (Cytochrome P450 2D6) was “Not Active”. For the same compound, the IC50 (Leukotriene C4 synthase) was “Not Active” and the IC50 [4] was “Not Active”.
With `CCCCC1=NC2(CCCC2)C(=O)N1Cc1ccc(-c2ccccc2-c2nnn[nH]2)cc1` [IRBESARTAN] the IC50 [1] was “Not Active”, the Ki [1] was “Not Active” and the IC50 [2] was “Not Active”. The Ki [2] was “Not Active”, the IC50 (Neutrophil elastase) was “Not Active” and the IC50 [3] was “Not Active”. For the same compound, the Ki [3] was “Not Active”, the IC50 (Cytochrome P450 2D6) was “Not Active” and the Ki (Cytochrome P450 2D6) was “Not Active”. For the same compound, the IC50 (Leukotriene C4 synthase) was “Not Active” and the IC50 [4] was “Not Active”.
In the case of `O=c1c(-c2ccc(O)cc2)coc2cc(O)cc(O)c12` [GENISTEIN], the IC50 [1] is reported as “Not Active”, the Ki [1] is reported as “Not Active” and the IC50 ([2]; read-out: IC50) is reported as 11 µM. The IC50 (Neutrophil elastase) was “Not Active”, the IC50 [3] was “Not Active” and the Ki [3] was “Not Active”. The IC50 (Cytochrome P450 2D6) was “Not Active”, the Ki (Cytochrome P450 2D6) was “Not Active” and the IC50 (Leukotriene C4 synthase) was “Not Active”. The IC50 [4] was “Not Active”.
For `CN(C)C(=N)NC(=N)N` [METFORMIN], the IC50 [1] was “Not Active”, the Ki [1] was “Not Active” and the IC50 [2] was “Not Active”. The Ki [2] was “Not Active”, the IC50 (Neutrophil elastase) was “Not Active” and the IC50 [3] was “Not Active”. For the same compound, the Ki [3] was “Not Active”, the IC50 (Cytochrome P450 2D6) was “Not Active” and the Ki (Cytochrome P450 2D6) was “Not Active”. The IC50 (Leukotriene C4 synthase) was “Not Active” and the IC50 [4] was “Not Active”.
With `C[C@H]1O[C@H](O[C@H]2[C@H](O)[C@@H](O)[C@@H](O[C@H]3[C@H](O)[C@@H](O)C(O)O[C@@H]3CO)O[C@@H]2CO)[C@H](O)[C@@H](O)[C@@H]1N[C@H]1C=C(CO)[C@@H](O)[C@H](O)[C@H]1O` (stereo partly drawn) [ACARBOSE] the IC50 [1] was “Not Active”, the Ki [1] was “Not Active” and the IC50 [2] was “Not Active”. The Ki [2] was “Not Active”, the IC50 (Neutrophil elastase) was “Not Active” and the IC50 [3] was “Not Active”. The Ki [3] was “Not Active”, the IC50 (Cytochrome P450 2D6) was “Not Active” and the Ki (Cytochrome P450 2D6) was “Not Active”. The IC50 (Leukotriene C4 synthase) was “Not Active” and the IC50 [4] was “Not Active”.
For `COc1ccccc1N`, the IC50 [1] was “Not Active”, the Ki [1] was “Not Active” and the IC50 [2] was “Not Active”. The Ki [2] was “Not Active”, the IC50 (Neutrophil elastase) was “Not Active” and the IC50 [3] was “Not Active”. The Ki [3] was “Not Active”, the IC50 (Cytochrome P450 2D6) was “Not Active” and the Ki (Cytochrome P450 2D6) was “Not Active”. For the same compound, the IC50 (Leukotriene C4 synthase) was “Not Active” and the IC50 [4] was “Not Active”.
In the case of `CC(O)COC[C@H]1O[C@@H]2O[C@H]3[C@H](O)[C@@H](O)[C@@H](O[C@H]4[C@H](O)[C@@H](O)[C@@H](O[C@H]5[C@H](O)[C@@H](O)[C@@H](O[C@H]6[C@H](O)[C@@H](O)[C@@H](O[C@H]7[C@H](O)[C@@H](O)[C@@H](O[C@H]8[C@H](O)[C@@H](O)[C@@H](O[C@H]1[C@H](O)[C@H]2O)O[C@@H]8COCC(C)O)O[C@@H]7COCC(C)O)O[C@@H]6COCC(C)O)O[C@@H]5COCC(C)O)O[C@@H]4COCC(C)O)O[C@@H]3COCC(C)O` (stereo partly drawn) [2-HYDROXYPROPYL-BETA-CYCLODEXTRIN], the IC50 [1] is reported as “Not Active”, the Ki [1] is reported as “Not Active” and the IC50 [2] is reported as “Not Active”. For the same compound, the Ki [2] was “Not Active”, the IC50 (Neutrophil elastase) was “Not Active” and the IC50 [3] was “Not Active”. The Ki [3] was “Not Active”, the IC50 (Cytochrome P450 2D6) was “Not Active” and the Ki (Cytochrome P450 2D6) was “Not Active”. The IC50 (Leukotriene C4 synthase) was “Not Active” and the IC50 [4] was “Not Active”.
With `CS(=O)(=O)Nc1ccc([N+](=O)[O-])cc1Oc1ccccc1` [NIMESULIDE] the IC50 [1] was “Not Active”, the Ki [1] was “Not Active” and the IC50 [2] was “Not Active”. The Ki [2] was “Not Active”, the IC50 (Neutrophil elastase) was “Not Active” and the IC50 [3] was “Not Active”. For the same compound, the Ki [3] was “Not Active”, the IC50 (Cytochrome P450 2D6) was “Not Active” and the Ki (Cytochrome P450 2D6) was “Not Active”. For the same compound, the IC50 (Leukotriene C4 synthase) was “Not Active” and the IC50 [4] was “Not Active”.
With `C[N+](C)(C)C[C@H](O)CC(=O)[O-]` [LEVOCARNITINE] the IC50 [1] was “Not Active”, the Ki [1] was “Not Active” and the IC50 [2] was “Not Active”. For the same compound, the Ki [2] was “Not Active”, the IC50 (Neutrophil elastase) was “Not Active” and the IC50 [3] was “Not Active”. The Ki [3] was “Not Active”, the IC50 (Cytochrome P450 2D6) was “Not Active” and the Ki (Cytochrome P450 2D6) was “Not Active”. The IC50 (Leukotriene C4 synthase) was “Not Active” and the IC50 [4] was “Not Active”.
With `O=C(O)c1cc(-c2ccc(F)cc2F)ccc1O` [DIFLUNISAL] the IC50 [1] was “Not Active”, the Ki [1] was “Not Active” and the IC50 [2] was “Not Active”. The Ki [2] was “Not Active”, the IC50 (Neutrophil elastase) was “Not Active” and the IC50 [3] was “Not Active”. For the same compound, the Ki [3] was “Not Active”, the IC50 (Cytochrome P450 2D6) was “Not Active” and the Ki (Cytochrome P450 2D6) was “Not Active”. For the same compound, the IC50 (Leukotriene C4 synthase) was “Not Active” and the IC50 [4] was “Not Active”.
With `CC(C)(C)NCC(O)COc1cccc2c1CC(O)C(O)C2` (stereo not drawn) [NADOLOL] the IC50 [1] was “Not Active”, the Ki [1] was “Not Active” and the IC50 [2] was “Not Active”. For the same compound, the Ki [2] was “Not Active”, the IC50 (Neutrophil elastase) was “Not Active” and the IC50 [3] was “Not Active”. The Ki [3] was “Not Active”, the IC50 (Cytochrome P450 2D6) was “Not Active” and the Ki (Cytochrome P450 2D6) was “Not Active”. For the same compound, the IC50 (Leukotriene C4 synthase) was “Not Active” and the IC50 [4] was “Not Active”.
For `CCCNC(=O)NS(=O)(=O)c1ccc(Cl)cc1` [CHLORPROPAMIDE], the IC50 [1] was “Not Active”, the Ki [1] was “Not Active” and the IC50 [2] was “Not Active”. The Ki [2] was “Not Active”, the IC50 (Neutrophil elastase) was “Not Active” and the IC50 [3] was “Not Active”. For the same compound, the Ki [3] was “Not Active”, the IC50 (Cytochrome P450 2D6) was “Not Active” and the Ki (Cytochrome P450 2D6) was “Not Active”. The IC50 (Leukotriene C4 synthase) was “Not Active” and the IC50 [4] was “Not Active”.
In the case of `CO/N=C(\C(=O)N[C@@H]1C(=O)N2C(C(=O)O)=C(COC(C)=O)CS[C@H]12)c1csc(N)n1` [CEFOTAXIME], the IC50 [1] is reported as “Not Active”, the Ki [1] is reported as “Not Active” and the IC50 [2] is reported as “Not Active”. The Ki [2] was “Not Active”, the IC50 (Neutrophil elastase) was “Not Active” and the IC50 [3] was “Not Active”. For the same compound, the Ki [3] was “Not Active”, the IC50 (Cytochrome P450 2D6) was “Not Active” and the Ki (Cytochrome P450 2D6) was “Not Active”. The IC50 (Leukotriene C4 synthase) was “Not Active” and the IC50 [4] was “Not Active”.
For `Nc1cc(-c2ccncc2)c[nH]c1=O` [INAMRINONE], the IC50 [1] was “Not Active”, the Ki [1] was “Not Active” and the IC50 [2] was “Not Active”. For the same compound, the Ki [2] was “Not Active”, the IC50 (Neutrophil elastase) was “Not Active” and the IC50 [3] was “Not Active”. For the same compound, the Ki [3] was “Not Active”, the IC50 (Cytochrome P450 2D6) was “Not Active” and the Ki (Cytochrome P450 2D6) was “Not Active”. For the same compound, the IC50 (Leukotriene C4 synthase) was “Not Active” and the IC50 [4] was “Not Active”.
